Source: patent US7772241B2, “Variolin derivatives and their use as antitumor agents” (Pharma Mar S.A., priority 2001, dated 2010)

Legend:
HT-29 = assay: Inhibition of cells growth by colorimetric (SRB) assay, HT-29; conditions: for GI50 / CC50: Homo sapiens, HT-29, 48 h; for GI50: read-out: GI50 HT-29, SRB assay, 48 hours exposure; for CC50: read-out: LC50 HT-29, SRB assay, 48 hours exposure; for TGI HT-29: SRB assay, 48 hours exposure
Source text: (§1) The finality of these assays is to interrupt the growth of a “in vitro” tumor cell culture by means a continued exhibition of the cells to the sample to be testing.
(§2) This form of the assay employs 96 well cell culture microplates of 9 mm diameter (Faircloth, 1988; Mosmann, 1983). Most of the cell lines are obtained from American Type Culture Collection (ATCC) derived from different human cancer types.
(§3) Cells are maintained in RPMI 1640 10% FBS, supplemented with 0.1 g/l penicillin and 0.1 g/l streptomycin sulphate and then incubated at 37° C., 5% CO2 and 98% humidity. For the experiments, cells were harvested from subconfluent cultures using trypsin and resuspended in fresh medium before plating.
(§4) Cells are seeded in 96 well microtiter plates, at 5×10^3 cells per well in aliquots of 195 μl medium, and they are allowed to attach to the plate surface by growing in drug free medium for 18 hours. Afterward, samples are added in aliquots of 5 μl in a ranging from 10 to 10^−8 μg/ml, dissolved in DMSO/EtOH/PBS (0.5:0.5:99). After 48 hours exposure, the antitumor effect are measured by the SRB methodology: cells are fixed by adding 50 μl of cold 50% (wt/vol) trichloroacetic acid (TCA) and incubating for 60 minutes at 4° C. Plates are washed with deionized water and dried. One hundred μl of SRB solution (0.4% wt/vol in 1% acetic acid) is added to each microtiter well and incubated for 10 minutes at room temperature. Unbound SRB is removed by washing with 1% acetic acid. Plates are air dried and bound stain is solubilized with Tris buffer. Optical densities are read on a automated spectrophotometric plate reader at a single wavelength of 490 nm.
(§5) The values for mean +/−SD of data from triplicate wells are calculated. Some parameters for cellular responses can be calculated: GI=growth inhibition, TGI=total growth inhibition (cytostatic effect) and LC=cell killing (cytotoxic effect).

IGROV-1 = assay: Inhibition of cells growth by colorimetric (SRB) assay, IGROV-1; conditions: for GI50 / CC50: Homo sapiens, IGROV-1, 48 h; for GI50: read-out: GI50 IGROV, SRB assay, 48 hours exposure; for CC50: read-out: LC50 IGROV, SRB assay, 48 hours exposure; for TGI IGROV: SRB assay, 48 hours exposure
Source text: as §1, §2, §3, §4, §5

SK-OV-3 = assay: Inhibition of cells growth by colorimetric (SRB) assay, SK-OV-3; conditions: for GI50 / CC50: Homo sapiens, SK-OV-3, 48 h; for GI50: read-out: GI50 SKOV-3, SRB assay, 48 hours exposure; for CC50: read-out: LC50 SKOV-3, SRB assay, 48 hours exposure; for TGI SKOV-3: SRB assay, 48 hours exposure
Source text: as §1, §2, §3, §4, §5

LNCaP = assay: Inhibition of cells growth by colorimetric (SRB) assay, LNCaP; conditions: for GI50 / CC50: Homo sapiens, LNCaP, 48 h; for GI50: read-out: GI50 LN-caP, SRB assay, 48 hours exposure; for CC50: read-out: LC50 LN-caP, SRB assay, 48 hours exposure; for TGI LN-caP: SRB assay, 48 hours exposure
Source text: as §1, §2, §3, §4, §5

IGROV-ET = assay: Inhibition of cells growth by colorimetric (SRB) assay, IGROV-ET; conditions: for GI50 / CC50: Homo sapiens, 48 h; for GI50: read-out: GI50 IGROV-ET, SRB assay, 48 hours exposure; for CC50: read-out: LC50 IGROV-ET, SRB assay, 48 hours exposure; for TGI IGROV-ET: SRB assay, 48 hours exposure
Source text: as §1, §2, §3, §4, §5

DU-145 = assay: Inhibition of cells growth by colorimetric (SRB) assay, DU-145; conditions: for GI50 / CC50: Homo sapiens, DU-145, 48 h; for GI50: read-out: GI50 DU-145, SRB assay, 48 hours exposure; for CC50: read-out: LC50 DU-145, SRB assay, 48 hours exposure; for TGI DU-145: SRB assay, 48 hours exposure
Source text: as §1, §2, §3, §4, §5

K-562 = assay: Inhibition of cells growth by colorimetric (SRB) assay, K-562; conditions: for GI50 / CC50: Homo sapiens, K562, 48 h; for GI50: read-out: GI50 K-562, SRB assay, 48 hours exposure; for CC50: read-out: LC50 K-562, SRB assay, 48 hours exposure; for TGI K-562: SRB assay, 48 hours exposure
Source text: as §1, §2, §3, §4, §5

LoVo-Dox = assay: Inhibition of cells growth by colorimetric (SRB) assay, LoVo-Dox; conditions: for GI50 / CC50: Homo sapiens, 48 h; for GI50: read-out: GI50 LOVO-DOX, SRB assay, 48 hours exposure; for CC50: read-out: LC50 LOVO-DOX, SRB assay, 48 hours exposure; for TGI LOVO-DOX: SRB assay, 48 hours exposure
Source text: as §1, §2, §3, §4, §5

LoVo = assay: Inhibition of cells growth by colorimetric (SRB) assay, LoVo; conditions: for GI50 / CC50: Homo sapiens, LoVo, 48 h; for GI50: read-out: GI50 LOVO, SRB assay, 48 hours exposure; for CC50: read-out: LC50 LOVO, SRB assay, 48 hours exposure; for TGI LOVO: SRB assay, 48 hours exposure
Source text: as §1, §2, §3, §4, §5

SK-MEL-28 = assay: Inhibition of cells growth by colorimetric (SRB) assay, SK-MEL-28; conditions: for GI50 / CC50: Homo sapiens, SK-MEL-28, 48 h; for GI50: read-out: GI50 MEL-28, SRB assay, 48 hours exposure; for CC50: read-out: LC50 MEL-28, SRB assay, 48 hours exposure; for TGI MEL-28: SRB assay, 48 hours exposure
Source text: as §1, §2, §3, §4, §5

PANC-1 = assay: Inhibition of cells growth by colorimetric (SRB) assay, PANC-1; conditions: for GI50 / CC50: Homo sapiens, PANC-1, 48 h; for GI50: read-out: GI50 PANC-1, SRB assay, 48 hours exposure; for CC50: read-out: LC50 PANC-1, SRB assay, 48 hours exposure; for TGI PANC-1: SRB assay, 48 hours exposure
Source text: as §1, §2, §3, §4, §5

A-549 = assay: Inhibition of cells growth by colorimetric (SRB) assay, A-549; conditions: for GI50 / CC50: Homo sapiens, A549, 48 h; for GI50: read-out: GI50 A-549, SRB assay, 48 hours exposure; for CC50: read-out: LC50 A-549, SRB assay, 48 hours exposure; for TGI A-549: SRB assay, 48 hours exposure
Source text: as §1, §2, §3, §4, §5

| Structure (SMILES) | GI50 (HT-29) | CC50 (HT-29) | TGI HT-29 (HT-29) | GI50 (IGROV-1) | CC50 (IGROV-1) | TGI IGROV (IGROV-1) | GI50 (SK-OV-3) | CC50 (SK-OV-3) | TGI SKOV-3 (SK-OV-3) | GI50 (LNCaP) | CC50 (LNCaP) | TGI LN-caP (LNCaP) | GI50 (IGROV-ET) | CC50 (IGROV-ET) | TGI IGROV-ET (IGROV-ET) | GI50 (DU-145) | CC50 (DU-145) | TGI DU-145 (DU-145) | GI50 (K-562) | CC50 (K-562) | also measured |
| --- | --- | --- | --- | --- | --- | --- | --- | --- | --- | --- | --- | --- | --- | --- | --- | --- | --- | --- | --- | --- | --- |
| Nc1nccc2c(-c3ccncn3)c3c(OCc4ccccc4)ccnc3n12 [Compound 98] | 15.6 µM | 27.1 µM | 2.71E−05 | 8.96 µM | 26.8 µM | 1.55E−05 | 10.6 µM | 27.1 µM | 2.19E−05 | 1.85 µM | 23.9 µM | 6.49E−06 | 7.22 µM | 20.1 µM | 1.21E−05 | 5.94 µM | 27.1 µM | 1.41E−05 | 7.82 µM | 25.8 µM | TGI K-562 (K-562): 1.42E−05; GI50 (LoVo-Dox): 5.92 µM; CC50 (LoVo-Dox): 27.1 µM; TGI LOVO-DOX (LoVo-Dox): 1.42E−05; GI50 (LoVo): 5.02 µM; CC50 (LoVo): 27.1 µM; TGI LOVO (LoVo): 1.51E−05; GI50 (SK-MEL-28): 7.52 µM; CC50 (SK-MEL-28): 21.2 µM; TGI MEL-28 (SK-MEL-28): 1.26E−05; GI50 (PANC-1): 5.62 µM; CC50 (PANC-1): 19 µM; TGI PANC-1 (PANC-1): 1.03E−05; GI50 (A-549): 15.3 µM; CC50 (A-549): 27.1 µM; TGI A-549 (A-549): 2.71E−05 |
| Nc1nccc2c(-c3ccnc(O)n3)c3c(O)ccnc3n12 [Compound 106] | 24.5 µM | 24.5 µM | 2.45E−05 | 6.69 µM | 24.1 µM | 1.27E−05 | 5.73 µM | 24.5 µM | 1.51E−05 | 6.42 µM | 24.5 µM | 1.64E−05 | 4.97 µM | 24.4 µM | 1.10E−05 | 16.2 µM | 24.5 µM | 2.45E−05 | 10.6 µM | 24.5 µM | TGI K-562 (K-562): 2.45E−05; GI50 (LoVo-Dox): 8.18 µM; CC50 (LoVo-Dox): 24.5 µM; TGI LOVO-DOX (LoVo-Dox): 2.45E−05; GI50 (LoVo): 24.5 µM; CC50 (LoVo): 24.5 µM; TGI LOVO (LoVo): 2.45E−05; GI50 (SK-MEL-28): 8.87 µM; CC50 (SK-MEL-28): 24.5 µM; TGI MEL-28 (SK-MEL-28): 2.45E−05; GI50 (PANC-1): 6.44 µM; CC50 (PANC-1): 24.5 µM; TGI PANC-1 (PANC-1): 1.71E−05; GI50 (A-549): 18.2 µM; CC50 (A-549): 24.5 µM; TGI A-549 (A-549): 2.45E−05 |
| CSc1nccc(-c2c3c(Cl)ccnc3n3c(N)nccc23)n1 [Compound 107] | 1.11 µM | 29.2 µM | 2.92E−05 | 2.95 µM | 23.7 µM | 8.34E−06 | 0.195 µM | 29.2 µM | 3.35E−06 | 3.38 µM | 25.3 µM | 9.25E−06 | 1.57 µM | 29.2 µM | 1.44E−05 | 0.653 µM | 29.2 µM | 1.44E−05 | 2.18 µM | 29.2 µM | TGI K-562 (K-562): 9.19E−06; GI50 (LoVo-Dox): 0.127 µM; CC50 (LoVo-Dox): 23 µM; TGI LOVO-DOX (LoVo-Dox): 5.98E−07; GI50 (LoVo): 0.173 µM; CC50 (LoVo): 29.2 µM; TGI LOVO (LoVo): 3.79E−06; GI50 (SK-MEL-28): 0.0248 µM; CC50 (SK-MEL-28): 29.2 µM; TGI MEL-28 (SK-MEL-28): 5.19E−06; GI50 (PANC-1): 4.99 µM; CC50 (PANC-1): 29.2 µM; TGI PANC-1 (PANC-1): 2.92E−05; GI50 (A-549): 4.52 µM; CC50 (A-549): 29.2 µM; TGI A-549 (A-549): 2.70E−05 |
